Where two headings read alike, the source gives them in different places.
What was measured:
Type in all cases: cell-based
Chlorella sp. = test: MIC study against algae (visual growth after two weeks); parameters: key: (−) indicates no algae growth was seen; (+) indicates algae growth was seen
Procedure: (§1) MIC data gives the minimum concentration of biocide needed to prevent growth of the algae in a culture.
(§2) The MIC studies are performed in sterile glassware using both viability and sterility controls. An algae suspension is added to test tubes containing the appropriate amounts of test biocide and the tubes are incubated for two weeks under fluorescent lights (on a “12 hour on”/“12 hour off” lighting regimen). The cultures are then measured by visual observation to determine the presence of living algae.

Phormidium inudatum = test: as above; parameters: key: (−) indicates no algae growth was seen; (+) indicates algae growth was seen
Procedure: as §1, §2

Phormidium sp. = test: as above; parameters: key: (−) indicates no algae growth was seen; (+) indicates algae growth was seen
Procedure: as §1, §2

E. Coli = test: MIC study against bacteria on microtiter plates; parameters: key: (−) indicates no bacterial growth was seen; (+) indicates bacterial growth was seen
Procedure: (§3) MIC data gives the minimum concentration of biocide needed to prevent growth of bacteria in a culture. Individual MIC's were determined by screening on microtiter plates. In order to determine the MIC's, 50 μl of phosphate water is added to each row in columns 2-12. Next, 100 μl of a biocide is added to column […]). Fifty microliters of the biocide is removed from column 1 and serially diluted from columns 2-11 using an eight tip pipettor (octapette). Finally, 50 μl of microbial inoculum is added to columns 1-11 (all rows) and column 12 (row A and E only). Column 12 serves as the row for sterility and viability controls. Bacterial inoculua contain about 1×10^9 colony forming units (cfu) per ml are prepared in 1⁄5 strength Nutrient broth. Bacterial microtiter plates are incubated at 37° C. for 48 hours. MIC's are determined by visual observation of the plates.

S. aureus = test: MIC study against bacteria on microtiter plates; parameters: key: (−) indicates no bacterial growth was seen; (+) indicates bacterial growth was seen
Procedure: as §3

SMILES	algae growth, MIC results against Chlorella sp. (Chlorella sp.)	algae growth, MIC results against Phormidium inudatum (Phormidium inudatum)	algae growth, MIC results against Phormidium sp. (Phormidium sp.)	bacterial growth, MIC results against E. Coli (E. Coli)	bacterial growth, MIC results against S. aureus (S. aureus)	bacterial growth, MIC results against E. Coli (E. Coli; Silver Conc. 0.39 ppm)	bacterial growth, MIC results against E. Coli (E. Coli; Silver Conc. 1.56 ppm)	bacterial growth, MIC results against E. Coli (E. Coli; Silver Conc. 3.1 ppm)	bacterial growth, MIC results against E. Coli (E. Coli; Silver Conc. 12.5 ppm)	bacterial growth, MIC results against E. Coli (E. Coli; Silver Conc. 25 ppm)	bacterial growth, MIC results against S. aureus (S. aureus; Silver Conc. 0.39 ppm)	bacterial growth, MIC results against S. aureus (S. aureus; Silver Conc. 0.78 ppm)	bacterial growth, MIC results against S. aureus (S. aureus; Silver Conc. 1.56 ppm)	bacterial growth, MIC results against S. aureus (S. aureus; Silver Conc. 12.5 ppm)	bacterial growth, MIC results against S. aureus (S. aureus; Silver Conc. 25 ppm)
O=S(=O)([O-])[O-].[Cu+2] [Unsequestered Copper, copper sulfate]	−	−	−	− and +	− and +										
[Ag] [Unsequestered Silver]						+	+	−	−	−	+	+	−	−	−

— patent US6387415B1, “Sequestered metal biocides using ionic polymeric stabilizing agents” (Bio-Lab, Inc., priority 1995, dated 2002)
